This note sets out measurements from ChEMBL document CHEMBL1148180, “The isolation and structural elucidation of four novel triterpene lactones, pseudolarolides A, B, C, and D, from Pseudolarix kaempferi” (J Nat Prod, 1993).

One experiment relates to KB. Briefly: Cytotoxicity against human KB cells. In kind it is functional, cell-based.
The subject of the next experiment is TE-671. Briefly: Cytotoxicity against human TE671 cells. In kind it is functional, cell-based.
The test system of another experiment is A549. Briefly: Cytotoxicity against human A549 cells. Format: functional, cell-based.
The test system of the next experiment is P388. Briefly: Cytotoxicity against mouse P388 cells. Format: functional, cell-based.
The subject of a further experiment is HCT-8. Briefly: Cytotoxicity against human HCT8 cells. In kind it is functional, cell-based.
Another experiment deals with Human alphaherpesvirus 2. Briefly: Antiviral activity against HSV2 in african green monkey Vero cells assessed as inhibition of viral plaque formation. In kind it is functional, organism-based.

By EC50 is commonly meant the midpoint of the concentration-response curve.

Structures are written as SMILES. ≈ marks a conversion by molar mass, not a printed value. Calls of active or inactive are those of the source. The calls are words filed in the database; no cut-off is given here.

On to `COC(=O)CC[C@]12C[C@]13CC[C@]1(C)[C@H]4[C@H](C)C[C@]5(C[C@@H](C)C(=O)O5)O[C@@H]4C[C@@]1(C)[C@@H]3CC[C@H]2C(C)(C)O` [PSEUDOLAROLIDE C], for which the concentration giving a half-maximal response (EC50) entry in the experiment on KB (kb), with TE-671, with A549 (a549), with P388 (p388) and in the experiment with HCT-8 (hct-8) was “Not Active” each time.
For `C[C@@H]1C[C@]2(C[C@@H](C)[C@H]3[C@@H](C[C@@]4(C)[C@@H]5CC[C@H]6C(C)(C)OC(=O)CC[C@@]67C[C@@]57CC[C@]34C)O2)OC1=O` [PSEUDOLAROLIDE D], the EC50 result in the experiment on KB (kb), with TE-671, in the experiment with A549 (a549), in the experiment on P388 (p388) and in the experiment with HCT-8 (hct-8) was “Not Active” throughout.
Consider `CC1=C[C@]2(C[C@@H](C)[C@H]3[C@@H](C[C@@]4(C)[C@@H]5CC[C@H]6C(C)(C)C(=O)CC[C@@]67C[C@@]57CC[C@]34C)O2)OC1=O` [PSEUDOLAROLIDE B], for which the EC50 with KB (Homo sapiens, KB, read-out: EC50) is 0.49 µg/mL (≈ 1.05 µM); with TE-671, “Not Active”; in the experiment with A549 (Homo sapiens, A549, read-out: EC50) it was 0.67 µg/mL (≈ 1.44 µM); in the experiment on P388 (Mus musculus, P388, read-out: EC50) it was 0.79 µg/mL (≈ 1.69 µM); in the experiment on HCT-8 (Homo sapiens, HCT-8, read-out: EC50), 0.73 µg/mL (≈ 1.56 µM). Also, the outcome with Human alphaherpesvirus 2 was Active.
For `C[C@@H]1C[C@]2(C[C@@H](C)[C@H]3[C@@H](C[C@@]4(C)[C@@H]5CC[C@H]6C(C)(C)C(=O)CC[C@@]67C[C@@]57CC[C@]34C)O2)OC1=O` [PSEUDOLAROLIDE A], the EC50 result in the experiment with KB (kb), in the experiment on TE-671, in the experiment on A549 (a549), in the experiment with P388 (p388) and with HCT-8 (hct-8) was “Not Active” each time. The outcome with Human alphaherpesvirus 2 was Active.
